According to patent publication US10259810B2, “N-sulfonylated pyrazolo[3,4-b]pyridin-6-carboxamides and method of use” (AbbVie S.à.r.l., priority 2015, dated 2019):
pEC50: −log10 of the molar value.

Experiments:
ΔF508-CFTR [1] = target: T1, ΔF508-CFTR (Homo sapiens, UniProt P13569, DEL508-508); experiment: CFTR cell surface levels using HRP-tagged ΔF508-CFTR expressing CFBE cells, in the presence of a co-corrector; format: cell-based; conditions: HRP-tagged ΔF508-CFTR CFBE cells, in the presence of 3 μM co-corrector; for pEC50: read-out: EC50
T1 construct: host or cells: CFBE41o-, doxycycline-inducible
How it was run: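 Chemiluminescent read-out of surface HRP (15 min, dark) after PBS washes. Activity is normalized as 100×(sample−DMSO)/(3 μM co-corrector alone−DMSO).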

ΔF508-CFTR [2] = target: T1, ΔF508-CFTR; experiment: CFTR cell surface levels using HRP-tagged ΔF508-CFTR expressing CFBE cells, intrinsic corrector capacity; format: cell-based; design: % Activation: concentration or dose not given beside the values; conditions: HRP-tagged ΔF508-CFTR expressing CFBE41o- cells, compound alone (intrinsic corrector capacity), 20 hours at 33° C.; for pEC50: read-out: EC50
How it was run: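 Surface ΔF508-CFTR was measured as HRP chemiluminescence from an extracellular-loop-4 tag, expressed as percent activity between DMSO and a […] corrector control.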

T1 sequence (P13569 with tags, fused parts or gaps DEL508-508): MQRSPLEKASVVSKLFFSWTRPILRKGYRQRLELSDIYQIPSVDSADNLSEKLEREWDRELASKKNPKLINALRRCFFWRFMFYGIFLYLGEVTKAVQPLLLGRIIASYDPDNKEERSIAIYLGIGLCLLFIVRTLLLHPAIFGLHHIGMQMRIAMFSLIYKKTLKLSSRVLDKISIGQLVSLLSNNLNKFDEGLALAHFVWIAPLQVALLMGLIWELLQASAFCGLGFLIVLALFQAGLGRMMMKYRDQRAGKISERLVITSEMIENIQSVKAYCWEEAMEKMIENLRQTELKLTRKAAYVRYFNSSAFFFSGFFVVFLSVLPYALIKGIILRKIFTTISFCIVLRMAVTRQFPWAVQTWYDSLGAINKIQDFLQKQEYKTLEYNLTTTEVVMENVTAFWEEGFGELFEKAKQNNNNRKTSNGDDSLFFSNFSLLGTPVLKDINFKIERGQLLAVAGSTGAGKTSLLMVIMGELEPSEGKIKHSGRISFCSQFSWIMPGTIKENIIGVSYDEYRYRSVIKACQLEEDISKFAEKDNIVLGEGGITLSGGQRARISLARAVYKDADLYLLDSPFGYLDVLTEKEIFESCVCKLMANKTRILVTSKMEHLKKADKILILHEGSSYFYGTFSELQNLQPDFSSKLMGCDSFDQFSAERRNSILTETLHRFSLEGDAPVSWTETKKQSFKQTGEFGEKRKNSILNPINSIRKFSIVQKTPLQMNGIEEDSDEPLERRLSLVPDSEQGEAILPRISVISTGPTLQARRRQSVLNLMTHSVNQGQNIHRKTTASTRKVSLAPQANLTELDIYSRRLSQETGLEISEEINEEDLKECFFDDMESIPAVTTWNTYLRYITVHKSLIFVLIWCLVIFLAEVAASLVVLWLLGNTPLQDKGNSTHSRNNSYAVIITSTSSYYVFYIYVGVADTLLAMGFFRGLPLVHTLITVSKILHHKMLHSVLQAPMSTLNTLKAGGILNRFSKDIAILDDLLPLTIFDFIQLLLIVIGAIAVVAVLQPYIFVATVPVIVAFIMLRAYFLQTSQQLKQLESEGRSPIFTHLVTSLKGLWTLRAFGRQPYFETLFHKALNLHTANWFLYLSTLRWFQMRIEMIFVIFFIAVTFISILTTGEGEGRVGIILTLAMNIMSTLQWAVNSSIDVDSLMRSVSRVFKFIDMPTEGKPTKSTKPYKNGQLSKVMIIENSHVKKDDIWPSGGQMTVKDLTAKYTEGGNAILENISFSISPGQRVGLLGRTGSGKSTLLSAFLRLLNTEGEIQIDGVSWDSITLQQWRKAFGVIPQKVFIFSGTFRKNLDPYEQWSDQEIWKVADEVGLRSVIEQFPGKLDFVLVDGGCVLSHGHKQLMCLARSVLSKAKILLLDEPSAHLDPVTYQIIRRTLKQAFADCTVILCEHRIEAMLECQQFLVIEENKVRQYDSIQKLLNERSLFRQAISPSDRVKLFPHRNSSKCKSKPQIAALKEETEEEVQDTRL

## CS(=O)(=O)NC(=O)c1cc(CN2CCC(N3CCOCC3)CC2)c2c(C3CCC3)nn(-c3ccc(F)cc3)c2n1 [Compound 596, 3-cyclobutyl-1-(4-fluorophenyl)-N-(methanesulfonyl)-4-{[4-(morpholin-4-yl)piperidin-1-yl]methyl}-1H-pyrazolo[3,4-b]pyridine-6-carboxamide]
ΔF508-CFTR [1]
  % Activation: 304.8%
  pEC50: 5.72
ΔF508-CFTR [2]
  % Activation: 104.3%
  pEC50: 5.86

## CC(C)N1CCC(c2cc(C(=O)NS(=O)(=O)N(C)C)nc3c2c(C2CCC2)nn3-c2ccc(F)cc2)CC1 [Compound 598, 3-cyclobutyl-N-(dimethylsulfamoyl)-1-(4-fluorophenyl)-4-[1-(propan-2-yl)piperidin-4-yl]-1H-pyrazolo[3,4-b]pyridine-6-carboxamide]
ΔF508-CFTR [1]
  % Activation: 153.9%
  pEC50: ≤ 5.00
ΔF508-CFTR [2]
  % Activation: 28.03%

## CS(=O)(=O)NC(=O)c1cc(C2CCN(CC3CCOCC3)CC2)c2c(C3CCC3)nn(-c3ccc(F)cc3)c2n1 [Compound 600, 3-cyclobutyl-1-(4-fluorophenyl)-N-(methanesulfonyl)-4-{1-[(oxan-4-yl)methyl]piperidin-4-yl}-1H-pyrazolo[3,4-b]pyridine-6-carboxamide]
ΔF508-CFTR [1]
  % Activation: 326.1%
  pEC50: 5.79
ΔF508-CFTR [2]
  % Activation: 126.5%
  pEC50: 5.92

## CN(C)S(=O)(=O)NC(=O)c1cc(C2CCN(CC3CCOCC3)CC2)c2c(C3CCC3)nn(-c3ccc(F)cc3)c2n1 [Compound 601, 3-cyclobutyl-N-(dimethylsulfamoyl)-1-(4-fluorophenyl)-4-{1-[(oxan-4-yl)methyl]piperidin-4-yl}-1H-pyrazolo[3,4-b]pyridine-6-carboxamide]
ΔF508-CFTR [1]
  % Activation: 273.9%
  pEC50: 6.20
ΔF508-CFTR [2]
  % Activation: 112%
  pEC50: 5.66

## COC1CC(CN2CCC(c3cc(C(=O)NS(C)(=O)=O)nc4c3c(C3CCC3)nn4-c3ccc(F)cc3)CC2)C(OC)O1 (centres unmarked) [Compound 602, 3-cyclobutyl-4-{1-[(2,5-dimethoxyoxolan-3-yl)methyl]piperidin-4-yl}-1-(4-fluorophenyl)-N-(methanesulfonyl)-1H-pyrazolo[3,4-b]pyridine-6-carboxamide]
ΔF508-CFTR [1]
  % Activation: 359.1%
  pEC50: 6.24
ΔF508-CFTR [2]
  % Activation: 133.6%
  pEC50: 5.93

## CS(=O)(=O)NC(=O)c1cc(C2CCN(CCC(F)(F)F)CC2)c2c(C3CCC3)nn(-c3ccc(F)cc3)c2n1 [Compound 603, 3-cyclobutyl-1-(4-fluorophenyl)-N-(methanesulfonyl)-4-[1-(3,3,3-trifluoropropyl)piperidin-4-yl]-1H-pyrazolo[3,4-b]pyridine-6-carboxamide]
ΔF508-CFTR [1]
  % Activation: 344.65%
  pEC50: 6.81
ΔF508-CFTR [2]
  % Activation: 136.2%
  pEC50: 6.55

## CN(C)S(=O)(=O)NC(=O)c1cc(C2CCN(CCC(F)(F)F)CC2)c2c(C3CCC3)nn(-c3ccc(F)cc3)c2n1 [Compound 604, 3-cyclobutyl-N-(dimethylsulfamoyl)-1-(4-fluorophenyl)-4-[1-(3,3,3-trifluoropropyl)piperidin-4-yl]-1H-pyrazolo[3,4-b]pyridine-6-carboxamide]
ΔF508-CFTR [1]
  % Activation: 268.3%
  pEC50: 6.52
ΔF508-CFTR [2]
  % Activation: 86.51%
  pEC50: 6.31

## COS(=O)(=O)NC(=O)c1cc(N2CCC(N3CCOCC3)CC2)c2c(C3CCC3)nn(-c3ccc(F)cc3)c2n1 [Compound 606, methyl {3-cyclobutyl-1-(4-fluorophenyl)-4-[4-(morpholin-4-yl)piperidin-1-yl]-1H-pyrazolo[3,4-b]pyridine-6-carbonyl}sulfamate]
ΔF508-CFTR [1]
  % Activation: 513.7%
  pEC50: 6.33
ΔF508-CFTR [2]
  % Activation: 283.8%
  pEC50: 6.01

## COCCN1CCN(C2CCN(c3cc(C(=O)NS(=O)(=O)N(C)C)nc4c3c(C3CCC3)nn4-c3ccc(F)cc3)CC2)CC1 [Compound 607, 3-cyclobutyl-N-(dimethylsulfamoyl)-1-(4-fluorophenyl)-4-{4-[4-(2-methoxyethyl)piperazin-1-yl]piperidin-1-yl}-1H-pyrazolo[3,4-b]pyridine-6-carboxamide]
ΔF508-CFTR [1]
  % Activation: 484.3%
  pEC50: 6.18
ΔF508-CFTR [2]
  % Activation: 272.6%
  pEC50: 6.47

## COCCN1CCN(S(=O)(=O)NC(=O)c2cc(N3CCC(COC)CC3)c3c(C4CCC4)nn(-c4ccc(F)cc4)c3n2)CC1 [Compound 610, 3-cyclobutyl-1-(4-fluorophenyl)-N-[4-(2-methoxyethyl)piperazine-1-sulfonyl]-4-[4-(methoxymethyl)piperidin-1-yl]-1H-pyrazolo[3,4-b]pyridine-6-carboxamide]
ΔF508-CFTR [1]
  % Activation: 375.5%
  pEC50: 6.93
ΔF508-CFTR [2]
  % Activation: 182.13%
  pEC50: 6.73

## CN(C)S(=O)(=O)NC(=O)c1cc(C2CCN(C3CCOCC3)CC2)c2c(C3CCC3)nn(-c3ccc(F)cc3)c2n1 [Compound 612, 3-cyclobutyl-N-(dimethylsulfamoyl)-1-(4-fluorophenyl)-4-[1-(oxan-4-yl)piperidin-4-yl]-1H-pyrazolo[3,4-b]pyridine-6-carboxamide]
ΔF508-CFTR [1]
  % Activation: 320.8%
  pEC50: 5.48
ΔF508-CFTR [2]
  % Activation: 108.7%
  pEC50: 6.06

## CN(C)S(=O)(=O)NC(=O)c1cc(C2CCN(CC3CC3)CC2)c2c(C3CCC3)nn(-c3ccc(F)cc3)c2n1 [Compound 613, 3-cyclobutyl-4-[1-(cyclopropylmethyl)piperidin-4-yl]-N-(dimethylsulfamoyl)-1-(4-fluorophenyl)-1H-pyrazolo[3,4-b]pyridine-6-carboxamide]
ΔF508-CFTR [1]
  % Activation: 152.9%
  pEC50: ≤ 5.00
ΔF508-CFTR [2]
  % Activation: 30.09%

## CN(C)S(=O)(=O)NC(=O)c1cc(N2CCC(N3CCN(C4COC4)CC3)CC2)c2c(C3CCC3)nn(-c3ccc(F)cc3)c2n1 [Compound 615, 3-cyclobutyl-N-(dimethylsulfamoyl)-1-(4-fluorophenyl)-4-{4-[4-(oxetan-3-yl)piperazin-1-yl]piperidin-1-yl}-1H-pyrazolo[3,4-b]pyridine-6-carboxamide]
ΔF508-CFTR [1]
  % Activation: 450.85%
  pEC50: 6.89
ΔF508-CFTR [2]
  % Activation: 255.3%
  pEC50: 6.32

## CN(C)S(=O)(=O)NC(=O)c1cc(OCC2CCN(C3CC3)CC2)c2c(C3CCC3)nn(-c3ccc(F)cc3)c2n1 [Compound 616, 3-cyclobutyl-4-[(1-cyclopropylpiperidin-4-yl)methoxy]-N-(dimethylsulfamoyl)-1-(4-fluorophenyl)-1H-pyrazolo[3,4-b]pyridine-6-carboxamide]
ΔF508-CFTR [1]
  % Activation: 341.15%
  pEC50: 6.53
ΔF508-CFTR [2]
  % Activation: 144.05%
  pEC50: 6.46

## CN(C)S(=O)(=O)NC(=O)c1cc(OCC2CCN(C3CCC3)CC2)c2c(C3CCC3)nn(-c3ccc(F)cc3)c2n1 [Compound 617, 3-cyclobutyl-4-[(1-cyclobutylpiperidin-4-yl)methoxy]-N-(dimethylsulfamoyl)-1-(4-fluorophenyl)-1H-pyrazolo[3,4-b]pyridine-6-carboxamide]
ΔF508-CFTR [1]
  % Activation: 324.25%
  pEC50: 6.01
ΔF508-CFTR [2]
  % Activation: 137.1%
  pEC50: 6.06

## CN(C)S(=O)(=O)NC(=O)c1cc(OCC2CCN(C3CCCCC3)CC2)c2c(C3CCC3)nn(-c3ccc(F)cc3)c2n1 [Compound 618, 3-cyclobutyl-4-[(1-cyclohexylpiperidin-4-yl)methoxy]-N-(dimethylsulfamoyl)-1-(4-fluorophenyl)-1H-pyrazolo[3,4-b]pyridine-6-carboxamide]
ΔF508-CFTR [1]
  % Activation: 295.9%
  pEC50: 6.15
ΔF508-CFTR [2]
  % Activation: 112.8%
  pEC50: 6.38
